Values of other authors, collected in patent publication US20100273825A1, “SOLID PHARMACEUTICAL COMPOSITION CONTAINING SOLIFENACIN AMORPHOUS FORM” (ASTELLAS PHARMA INC., priority 2009, published 2010).

Biological target: M3 receptors (Homo sapiens, UniProt P20309)
Settings: M3 in smooth muscles, gland tissues; M2 in the heart

M3 receptors, sequence (P20309 whole entry): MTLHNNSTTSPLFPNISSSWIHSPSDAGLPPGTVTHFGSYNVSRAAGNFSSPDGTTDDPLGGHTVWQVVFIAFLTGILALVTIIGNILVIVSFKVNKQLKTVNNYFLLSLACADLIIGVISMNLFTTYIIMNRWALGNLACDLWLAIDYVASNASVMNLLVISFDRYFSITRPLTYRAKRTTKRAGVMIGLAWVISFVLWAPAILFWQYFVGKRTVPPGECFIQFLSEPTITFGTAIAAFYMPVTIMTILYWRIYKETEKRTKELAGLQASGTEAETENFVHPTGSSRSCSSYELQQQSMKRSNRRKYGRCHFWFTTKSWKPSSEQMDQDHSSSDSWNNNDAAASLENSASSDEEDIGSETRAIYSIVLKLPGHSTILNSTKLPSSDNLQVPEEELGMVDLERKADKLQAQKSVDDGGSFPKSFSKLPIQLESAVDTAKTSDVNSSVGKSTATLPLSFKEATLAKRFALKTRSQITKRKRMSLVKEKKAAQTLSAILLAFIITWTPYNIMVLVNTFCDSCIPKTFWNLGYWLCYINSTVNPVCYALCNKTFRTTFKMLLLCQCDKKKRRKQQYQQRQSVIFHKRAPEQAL

Selectivity for M3 receptors in comparison with M2 receptors: high selectivity
SMILES: O=C(O[C@H]1CN2CCC1CC2)N1CCc2ccccc2[C@@H]1c1ccccc1 [solifenacin, (R)-quinuclidin-3-yl (S)-1-phenyl-1,2,3,4-tetrahydroisoquinoline-2-carboxylate]
